Data: ChEMBL document CHEMBL3046317, “Synthesis and Herbicidal Activity of Sulfonylureas with Fused Heterocyclic Moiety” (1994)

Key:
Format in all cases: functional
[1] = tested on: Lindernia procumbens; assay: Herbicidal activity against Lindernia procumbens assessed as killing at 1 g/ha by pot test
[2] = tested on: Cyperus difformis; assay: Herbicidal activity against Cyperus difformis assessed as killing at 1 g/ha by pot test
[3] = tested on: Cyperus difformis; assay: Herbicidal activity against Cyperus difformis assessed as killing at 10 g/ha by pot test
[4] = tested on: Schoenoplectiella juncoides; assay: Herbicidal activity against Schoenoplectiella juncoides assessed as killing at 1 g/ha by pot test
[5] = tested on: Rotala indica; assay: Herbicidal activity against Rotala indica assessed as killing at 10 g/ha by pot test
[6] = tested on: Echinochloa oryzicola; assay: Herbicidal activity against Echinochloa oryzicola assessed as killing at 1 g/ha by pot test
[7] = tested on: Echinochloa oryzicola; assay: Herbicidal activity against Echinochloa oryzicola assessed as killing at 10 g/ha by pot test
[8] = tested on: Sagittaria pygmaea; assay: Herbicidal activity against Sagittaria pygmaea assessed as killing at 1 g/ha by pot test
[9] = tested on: Rotala indica; assay: Herbicidal activity against Rotala indica assessed as killing at 1 g/ha by pot test
[10] = tested on: Lindernia procumbens; assay: Herbicidal activity against Lindernia procumbens assessed as killing at 10 g/ha by pot test
[11] = tested on: Sagittaria pygmaea; assay: Herbicidal activity against Sagittaria pygmaea assessed as killing at 10 g/ha by pot test
[12] = tested on: Schoenoplectiella juncoides; assay: Herbicidal activity against Schoenoplectiella juncoides assessed as killing at 10 g/ha by pot test

SMILES | Activity [1] [%] | Activity [2] [%] | Activity [3] [%] | Activity [4] [%] | Activity [5] [%] | Activity [6] [%] | Activity [7] [%] | Activity [8] [%] | Activity [9] [%] | Activity [10] [%] | Activity [11] [%] | Activity [12] [%]
COc1cc(OC)nc(NC(=O)NS(=O)(=O)c2c(C)cc3ccccn23)n1 | 1 | 1 | 76 | 1 | 51 | 1 | 76 | 51 | 1 | 51 | 76 | 51
COc1cc(OC)nc(NC(=O)NS(=O)(=O)c2c(C)cn3ccccc23)n1 | 1 | 1 | 51 | 1 | 1 | 1 | 1 | 51 | 1 | 1 | 76 | 1
COc1cc(OC)nc(NC(=O)NS(=O)(=O)c2ncc3ccccn23)n1 | 1 | 1 | 1 | 1 | 51 | 1 | 1 | 1 | 51 | 51 | 76 | 51
COc1cc(OC)nc(NC(=O)NS(=O)(=O)c2nc(C)n3ccccc23)n1 | 1 | 1 | 76 | 1 | 76 | 1 | 1 | 51 | 51 | 1 | 51 | 1
COc1cc(OC)nc(NC(=O)NS(=O)(=O)c2ncn3ccccc23)n1 | 1 | 51 | 76 | 1 | 76 | 1 | 51 | 1 | 51 | 51 | 76 | 1
COc1cc(OC)nc(NC(=O)NS(=O)(=O)c2c(C)nn3ccccc23)n1 | 76 | 88 | 88 | 76 | 88 | 88 | 88 | 88 | 88 | 88 | 88 | 100
COc1cc(OC)nc(NC(=O)NS(=O)(=O)c2c(C)nn3cccnc23)n1 | 88 | 88 | 88 | 76 | 88 | 88 | 88 | 76 | 76 | 88 | 88 | 100
COc1cc(OC)nc(NC(=O)NS(=O)(=O)c2c(C)nc3n(C)ccn23)n1 | 51 | 1 | 76 | 1 | 88 | 1 | 88 | 1 | 51 | 51 | 76 | 76
COc1cc(OC)nc(NC(=O)NS(=O)(=O)c2c(C)nc3scnn23)n1 | 76 | 1 | 88 | 51 | 88 | 76 | 88 | 1 | 76 | 88 | 88 | 88
COc1cc(OC)nc(NC(=O)NS(=O)(=O)c2c(C)nc3cccnn23)n1 | 88 | 88 | 100 | 100 | 88 | 88 | 100 | 88 | 88 | 88 | 100 | 100
